Test results as given in US20240327375A1, “SUBSTITUTED HETEROBICYCLIC DERIVATIVES AS NEGATIVE ALLOSTERIC MODULATORS OF MGLU7 RECEPTOR” (priority 2021, published 2024).
Counter-ions that a name gives are not always drawn.

What was measured:
[1] = target: T1, human mGlu7 (Homo sapiens, UniProt Q14831); assay: mGlu7 assay on HEK-expressing human mGlu7: fluorescent cell-based Ca2+ mobilization (FLIPR384), inhibition of EC80 L-AP4 response; details: HEK-293 cells expressing hmGlu7, EC80 L-AP4 stimulation; mean of at least three independent experiments in duplicate; read-out: Ca^2+ Flux (mean IC50)
T1 construct: expressed in transfected cells
Text: mGlu7 Assay on HEK-Expressing Human mGlu7
The cDNA encoding the human metabotropic glutamate 7 receptor (hmGlu7), (accession number NM_181874.2, NCBI Nucleotide database browser), was subcloned into an expression vector containing also the hygromycin resistance gene. In parallel, the cDNA encoding a G protein allowing redirection of the activation signal to intracellular calcium flux was subcloned into a different expression vector containing also the Puromycin resistance gene. Transfection of both these vectors into HEK293 cells with PolyFect reagent (Qiagen) according to supplier's protocol, and hygromycin and puromycin treatment allowed selection of antibiotic resistant cells which had integrated stably one or more copies of the plasmids. Positive cellular clones expressing hmGlu7 were identified in a functional assay measuring changes in calcium fluxes in response to glutamate and L-AP4 or known mGlu7 orthosteric antagonists.
HEK-293 cells expressing hmGlu7 were maintained in media containing DMEM, Fetal Bovine Serum (10%), Glutamax™ (2 mM), penicillin (100 units/mL), streptomycin (100 μg/mL), geneticin (100 μg/mL) and hygromycin-B (40 μg/mL) and puromycin (1 μg/mL) at 37° C. with 5% CO2 in a humidified atmosphere.
Fluorescent Cell Based- Ca^+ Mobilization Assay Human mGlu7 HEK-293 cells were plated out 24 hours prior to a fluorescent cell-based calcium mobilization assay using FLIPR^384 assay (Molecular Device, Sunnyvale, CA, USA) in black-walled, clear-bottomed, poly-L-ornithine-coated 384-well plates at a density of 25,000 cells/well in a glutamine/glutamate free DMEM medium containing fetal bovine serum (10%), penicillin (100 units/mL), streptomycin (100 μg/mL) and doxycyline (1 μg/ml) at 37° C. with 5% CO2 in a humidified atmosphere.
On the day of the assay, the medium was aspirated and the cells were loaded with a 3 μM solution of Fluo4-AM (LuBioScience, Lucerne, Switzerland) in 0.03% pluronic acid. After 1 hour at 37° C./5% CO2, the non incorporated dye was removed by washing cell plate with the assay buffer. All assays were performed in a pH 7.4 buffered-solution containing 20 mM HEPES, 143 mM NaCl, 6 mM KCl, 1 mM MgSO4, 1 mM CaCl2, 0.125 mM sulfinpyrazone and 0.1% glucose.
After 10 s of basal fluorescence recording, various concentrations of the compounds of the invention were added to the cells. Changes in fluorescence levels were first monitored for 180 s in order to detect any agonist activity of the compounds. Then the cells were stimulated by an EC80 L-AP4 concentration for an additional 110 s in order to measure inhibiting activities of the compounds of the invention. EC80 L-AP4 concentration is the concentration giving 80% of the maximal glutamate response.
The concentration-response curves of L-AP4 or representative compounds of the present invention were generated using the Prism GraphPad software (Graph Pad Inc, San Diego, USA). The curves were fitted to a four-parameter logistic equation: […]
allowing determination of IC50 values.
The Table 3 below represents the mean IC50 obtained from at least three independent experiments of selected molecules performed in duplicate.

T1 sequence (Q14831 35-922 isoform Q14831-2 limits assumed): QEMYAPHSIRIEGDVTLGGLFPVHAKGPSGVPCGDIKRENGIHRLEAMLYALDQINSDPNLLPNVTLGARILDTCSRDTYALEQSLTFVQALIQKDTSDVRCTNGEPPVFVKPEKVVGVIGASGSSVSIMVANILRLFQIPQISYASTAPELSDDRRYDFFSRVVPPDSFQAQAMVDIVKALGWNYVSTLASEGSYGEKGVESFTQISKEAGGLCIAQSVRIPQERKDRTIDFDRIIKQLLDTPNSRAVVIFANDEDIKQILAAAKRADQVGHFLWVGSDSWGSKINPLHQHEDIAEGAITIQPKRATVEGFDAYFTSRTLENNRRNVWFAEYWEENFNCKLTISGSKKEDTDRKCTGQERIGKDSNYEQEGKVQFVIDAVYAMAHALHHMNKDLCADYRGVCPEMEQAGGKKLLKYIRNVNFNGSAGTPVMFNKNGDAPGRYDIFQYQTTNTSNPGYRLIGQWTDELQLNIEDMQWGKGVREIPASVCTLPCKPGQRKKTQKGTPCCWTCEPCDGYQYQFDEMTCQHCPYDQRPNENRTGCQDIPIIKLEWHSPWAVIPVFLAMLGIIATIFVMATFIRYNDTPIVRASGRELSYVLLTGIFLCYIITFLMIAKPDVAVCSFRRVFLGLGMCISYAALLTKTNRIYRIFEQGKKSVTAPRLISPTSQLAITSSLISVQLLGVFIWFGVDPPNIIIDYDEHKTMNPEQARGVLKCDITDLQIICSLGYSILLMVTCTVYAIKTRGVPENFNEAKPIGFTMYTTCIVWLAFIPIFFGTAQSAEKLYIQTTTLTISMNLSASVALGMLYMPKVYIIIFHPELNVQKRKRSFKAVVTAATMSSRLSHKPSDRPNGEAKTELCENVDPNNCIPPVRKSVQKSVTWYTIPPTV

| Compound | IC50 [1] | melting point |
| --- | --- | --- |
| O=c1c2ccc(-c3cccc(C4CC4)c3)cc2cnn1-c1ccccn1 [1-22, 6-(3-Cyclopropylphenyl)-2-(pyridin-2-yl)phthalazin-1(2H)-one] | 0.1 to 1 µM | 181 to 184 °C |
| Cc1ccc(-c2ccc3c(=O)n(-c4ncc(N5CCOCC5)cn4)ncc3c2)c(C)c1 [1-81] | 0.1 to 1 µM |  |
| Cc1ccc(-c2ccc3c(=O)n(-c4ncc(N5CCC(O)C5)cn4)ncc3c2)c(C)c1 (centres unmarked) [1-82] | < 0.1 µM |  |
| O=c1c2ccc(-c3cccc(N4CCC4)c3)cc2cnn1-c1ncc(N2CCC(O)C2)cn1 (centres unmarked) [1-83] | 0.1 to 1 µM |  |
| COc1cccc(-c2ccc3c(=O)n(-c4ncc(N5CC6(COC6)C5)cn4)ncc3c2)c1C [1-84, 2-(5-(2-Oxa-6-azaspiro[3.3]heptan-6-yl)pyrimidin-2-yl)-6-(3-methoxy-2-methylphenyl)phthalazin-1(2H)-one] | 0.1 to 1 µM |  |
| CCOc1cnc(-n2ncc3cc(-c4cccc(OC)c4C)ccc3c2=O)nc1 [1-85] | < 0.1 µM |  |
| COc1cccc(-c2ccc3c(=O)n(-c4ncc(NC5CCC(O)C5)cn4)ncc3c2)c1C (centres unmarked) [1-87] | < 0.1 µM |  |
| COc1cccc(-c2ccc3c(=O)n(-c4ncc(NCC(C)(C)O)cn4)ncc3c2)c1C [1-88] | < 0.1 µM |  |
| COc1cccc(-c2ccc3c(=O)n(-c4ncc(Cl)cn4)ncc3c2)c1C [1-90] | < 0.1 µM |  |
| COc1cccc(-c2ccc3c(=O)n(-c4ccc(S(C)(=N)=O)cn4)ncc3c2)c1C (centres unmarked) [1-91] | < 0.1 µM |  |
| COc1cccc(-c2ccc3c(=O)n(-c4ccc(C(=O)NCC(C)(C)O)cn4)ncc3c2)c1C [1-92] | < 0.1 µM |  |
| COc1cccc(-c2ccc3c(=O)n(-c4ccc(C(=O)N5CCC(O)C5)cn4)ncc3c2)c1C (centres unmarked) [1-93] | < 0.1 µM |  |
| COc1cccc(-c2ccc3c(=O)n(-c4ccc(C(=O)NC5CCC(O)C5)cn4)ncc3c2)c1C (centres unmarked) [1-94] | < 0.1 µM |  |
| COc1cccc(-c2ccc3c(=O)n(-c4ncc(NCCN5CCCC5)cn4)ncc3c2)c1C [1-95] | 0.1 to 1 µM |  |
| COc1cccc(-c2ccc3c(=O)n(-c4ncc(NCC(C)(C)N(C)C)cn4)ncc3c2)c1C [1-96] | 0.1 to 1 µM |  |
| COc1cccc(-c2ccc3c(=O)n(-c4ncc(NCCn5ccnc5)cn4)ncc3c2)c1C [1-97] | < 0.1 µM |  |
| COc1cccc(-c2ccc3c(=O)n(-c4ccc(NC(=O)[C@@H](N)C(C)C)cn4)ncc3c2)c1C [1-98, (S)-2-Amino-N-(6-(6-(3-methoxy-2-methylphenyl)-1-oxophthalazin-2(1H)-yl)pyridin-3-yl)-3-methylbutanamide hydrochloride] | 0.1 to 1 µM |  |
| COc1cccc(-c2ccc3c(=O)n(-c4ccc(NC(=O)[C@@H]5CCCN5)cn4)ncc3c2)c1C [1-99] | 0.1 to 1 µM |  |
| COc1cccc(-c2ccc3c(=O)n(-c4ncc(NC(C)(C)CO)cn4)ncc3c2)c1C [1-100] | < 0.1 µM |  |

More lines, now with the values ahead:

| IC50 [1] | melting point | Compound |
| --- | --- | --- |
| 0.1 to 1 µM |  | COc1cccc(-c2ccc3c(=O)n(-c4ncc(N5CCC(N(C)C)C5)cn4)ncc3c2)c1C (centres unmarked) [1-101] |
| < 0.1 µM |  | COc1cccc(-c2ccc3c(=O)n(-c4ccc(NC(=O)[C@@H](N)CO)cn4)ncc3c2)c1C [1-102] |
| 0.1 to 1 µM |  | COc1cccc(-c2ccc3c(=O)n(-c4ncc(N5CCCC(N(C)C)C5)cn4)ncc3c2)c1C (centres unmarked) [1-103] |
| 0.1 to 1 µM |  | COc1cccc(-c2ccc3c(=O)n(-c4ncc(NC(C)(C)CN(C)C)cn4)ncc3c2)c1C [1-104] |
| 0.1 to 1 µM |  | CNCCNc1cnc(-n2ncc3cc(-c4cccc(OC)c4C)ccc3c2=O)nc1 [1-105] |
| < 0.1 µM |  | COc1cccc(-c2ccc3c(=O)n(-c4ncc(NCCn5cncn5)cn4)ncc3c2)c1C [1-106] |
| < 0.1 µM |  | COc1cccc(-c2ccc3c(=O)n(-c4ncc(NC5CCN(C)C5)cn4)ncc3c2)c1C (centres unmarked) [1-107] |
| < 0.1 µM |  | CN1CCCc2c(-c3ccc4c(=O)n(-c5ncccn5)ncc4c3)cccc21 [1-108] |
| < 0.1 µM |  | COCC(C)(C)Nc1cnc(-n2ncc3cc(-c4cccc(OC)c4C)ccc3c2=O)nc1 [1-109] |
| 0.1 to 1 µM |  | COc1cccc(-c2ccc3c(=O)n(-c4ncc(NCC(C)(C)OC)cn4)ncc3c2)c1C [1-110, 6-(3-Methoxy-2-methylphenyl)-2-(5-((2-methoxy-2-methylpropyl)amino)pyrimidin-2-yl)phthalazin-1(2H)-one] |
| < 0.1 µM |  | COc1cccc(-c2ccc3c(=O)n(-c4ncccn4)ncc3c2)c1F [1-111] |
| 1 to 10 µM |  | COc1nccc(-c2ccc3c(=O)n(-c4ncccn4)ncc3c2)c1F [1-112] |
